Data from patent US9833497B2, “Human originated EGF domain proteins and use of the same” (CHENGDU SOURCEBIO LIMITED-LIABILITY COMPANY, priority 2013, dated 2017).

How the values were obtained:
Type in all cases: cell-based
[1] = test system: Enterobacter cloacae; assay: MIC against Gram-negative bacteria: Enterobacter cloacae; conditions: for MIC against E. cloacae: Enterobacter cloacae
Summary of the method: (§1)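 Bacteria grown in LB at 37° C with shaking to McFarland 0.5, pelleted and resuspended in fresh LB, then seeded at 5×10^5 CFU/mL per well. Purified recombinant human EGF domain proteins were two-fold serially diluted in triplicate and plates shaken at 37° C, 175 rpm. MIC is the lowest protein concentration with no bacterial growth.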

[2] = test system: Citrobacter diversus; assay: MIC against Gram-negative bacteria: Citrobacter diversus; conditions: for MIC against C. diversus: Citrobacter diversus
Summary of the method: as §1

[3] = test system: E. coli BL21; assay: MIC against Gram-negative bacteria: E. coli BL21
Summary of the method: as §1

[4] = test system: Aeromonas hydrophila; assay: MIC against Gram-negative bacteria: Aeromonas hydrophila; conditions: for MIC against A. hydrophila: Aeromonas hydrophila
Summary of the method: as §1

[5] = test system: Proteus mirabilis; assay: MIC against Gram-negative bacteria: Proteus mirabilis; conditions: for MIC against P. mirabilis: Proteus mirabilis
Summary of the method: as §1

[6] = test system: Moraxella catarrhalis; assay: MIC against Gram-negative bacteria: Moraxella catarrhalis; conditions: for MIC against M. catarrhalis: Moraxella catarrhalis
Summary of the method: as §1

[7] = test system: Pseudomonas aeruginosa; assay: MIC against Gram-negative bacteria: Pseudomonas aeruginosa; conditions: for MIC against P. aeruginosa: Pseudomonas aeruginosa
Summary of the method: as §1

[8] = test system: Klebsiella pneumonia; assay: MIC against Gram-negative bacteria: Klebsiella pneumonia; conditions: for MIC against K. pneumonia: Klebsiella pneumonia
Summary of the method: as §1

[9] = test system: E. coli DH5α; assay: Antibacterial activity: MIC and growth curve against E. coli DH5α in 96-well plate; conditions: minimal inhibitory concentration against E. coli DH5α; 96-well plate, 5×10^5 CFU/mL, 37° C., judged after 8 h
Summary of the method: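 Log-phase bacteria (OD600 ~0.5) resuspended in LB at 5×10^5 CFU/mL, exposed to recombinant protein at 50, 25, 12.5 μg/mL final in triplicate, 37 °C shaking at 175 rpm. OD600 read every 30 min; MIC is lowest concentration showing no growth.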

[10] = test system: Proteus vulgaris; assay: MIC against Gram-negative bacteria: Proteus vulgaris; conditions: for MIC against P. vulgaris: Proteus vulgaris
Summary of the method: as §1

[11] = test system: Serratia marcescens; assay: MIC against Gram-negative bacteria: Serratia marcescens; conditions: for MIC against S. marcescens: Serratia marcescens
Summary of the method: as §1

[12] = 10 h cultivation at 37° C., 5×10^5 CFU/mL, two-fold serial dilution
[13] = 96-well plate, 5×10^5 CFU/mL, 37° C., 10 h
[14] = 5×10^5 CFU/mL, 10 h cultivation at 37° C.

PRT811 (FGKNCSFSCSCQNGGTCDSVTGACRCPPGVSGTNCE; listed as Homo sapiens)
MIC (μg/mL) E. cloacae ([1]; E. cloacae, 10 h cultivation at 37° C., 5×10^5 CFU/mL): 12.5 µg/mL | MIC (μg/mL) C. diversus ([2]; C. diversus, 10 h cultivation at 37° C., 5×10^5 CFU/mL): 12.5 µg/mL | MIC (μg/mL) E. coli BL21 ([3]; E. coli BL21, 10 h cultivation at 37° C., 5×10^5 CFU/mL): 25 µg/mL | MIC (μg/mL) A. hydrophila ([4]; A. hydrophila, 10 h cultivation at 37° C., 5×10^5 CFU/mL): 12.5 µg/mL | MIC (μg/mL) P. mirabilis ([5]; P. mirabilis, 10 h cultivation at 37° C., 5×10^5 CFU/mL): 25 µg/mL | MIC (μg/mL) M. catarrhalis ([6]; M. catarrhalis, 10 h cultivation at 37° C., 5×10^5 CFU/mL): 12.5 µg/mL | MIC (μg/mL) P. aeruginosa ([7]; P. aeruginosa, 10 h cultivation at 37° C., 5×10^5 CFU/mL): 12.5 µg/mL | MIC (μg/mL) K. pneumonia ([8]; K. pneumonia, 10 h cultivation at 37° C., 5×10^5 CFU/mL): 12.5 µg/mL | MIC [9]: 12.5 µg/mL | MIC (μg/mL) P. vulgaris ([10]; P. vulgaris, 10 h cultivation at 37° C., 5×10^5 CFU/mL): 25 µg/mL | MIC (μg/mL) S. marcescens ([11]; S. marcescens, 10 h cultivation at 37° C., 5×10^5 CFU/mL): 25 µg/mL

PRT1055 (GADPCLYQNGGCEHICKKRLGTAWCSCREGFMKASDGKTCL; listed as Homo sapiens)
MIC E. cloacae [1, 12]: 12.5 µg/mL | MIC C. diversus [2, 12]: 25 µg/mL | MIC E. coli BL21 [3, 12]: 50 µg/mL | MIC A. hydrophila [4, 12]: 50 µg/mL | MIC P. mirabilis [5, 12]: 25 µg/mL | MIC M. catarrhalis [6, 12]: 12.5 µg/mL | MIC P. aeruginosa [7, 12]: 12.5 µg/mL | MIC K. pneumonia [8, 12]: 50 µg/mL | MIC [9]: 12.5 µg/mL | MIC P. vulgaris [10, 12]: 50 µg/mL | MIC S. marcescens [11, 12]: 12.5 µg/mL

PRT664 (DINECLTLGLCKDAECVNTRGSYLCTCRPGLMLDPSRSRCV; listed as Homo sapiens)
MIC E. cloacae [1, 13]: 25 µg/mL | MIC C. diversus [2, 13]: 12.5 µg/mL | MIC E. coli BL21 [3, 13]: 50 µg/mL | MIC A. hydrophila [4, 13]: 50 µg/mL | MIC P. mirabilis [5, 13]: 50 µg/mL | MIC M. catarrhalis [6, 13]: 25 µg/mL | MIC P. aeruginosa [7, 13]: 25 µg/mL | MIC K. pneumonia [8, 13]: 12.5 µg/mL | MIC [9]: 25 µg/mL | MIC P. vulgaris [10, 13]: 12.5 µg/mL | MIC S. marcescens [11, 13]: 25 µg/mL

PRT894 (NLDDCASSPCDSGTCLDKIDGYECACEPGYTGSMCN; listed as Homo sapiens)
MIC ([1]; E. cloacae, 10 h cultivation at 37° C.): 12.5 µg/mL | MIC ([2]; C. diversus, 10 h cultivation at 37° C.): 12.5 µg/mL | MIC ([3]; E. coli BL21, 10 h cultivation at 37° C.): 50 µg/mL | MIC ([4]; A. hydrophila, 10 h cultivation at 37° C.): 50 µg/mL | MIC ([5]; P. mirabilis, 10 h cultivation at 37° C.): 12.5 µg/mL | MIC ([6]; M. catarrhalis, 10 h cultivation at 37° C.): 50 µg/mL | MIC ([7]; P. aeruginosa, 10 h cultivation at 37° C.): 12.5 µg/mL | MIC ([8]; K. pneumonia, 10 h cultivation at 37° C.): 50 µg/mL | MIC [9]: 12.5 µg/mL | MIC ([10]; P. vulgaris, 10 h cultivation at 37° C.): 50 µg/mL | MIC ([11]; S. marcescens, 10 h cultivation at 37° C.): 12.5 µg/mL

PRT1252 (CPLTCDDISGQVTCPPDWPCGSPGCWCPEGQVLGSEGWCV; listed as Homo sapiens)
MIC against E. cloacae [1, 13]: 25 µg/mL | MIC against C. diversus [2, 13]: 12.5 µg/mL | MIC against E. coli BL21 ([3]; E. coli BL21, 96-well plate, 5×10^5 CFU/mL, 37° C., 10 h): 50 µg/mL | MIC against A. hydrophila [4, 13]: 50 µg/mL | MIC against P. mirabilis [5, 13]: 50 µg/mL | MIC against M. catarrhalis [6, 13]: 25 µg/mL | MIC against P. aeruginosa [7, 13]: 25 µg/mL | MIC against K. pneumonia [8, 13]: 12.5 µg/mL | MIC [9]: 12.5 µg/mL | MIC against P. vulgaris [10, 13]: 25 µg/mL | MIC against S. marcescens [11, 13]: 12.5 µg/mL

PRT1398 (EVDCLDPTCSSHGVCVNGECLCSPGWGGLNCEL; listed as Homo sapiens)
MIC against E. cloacae [1, 14]: 50 µg/mL | MIC against C. diversus [2, 14]: 12.5 µg/mL | MIC against E. coli BL21 ([3]; E. coli BL21, 5×10^5 CFU/mL, 10 h cultivation at 37° C.): 25 µg/mL | MIC against A. hydrophila [4, 14]: 25 µg/mL | MIC against P. mirabilis [5, 14]: 12.5 µg/mL | MIC against M. catarrhalis [6, 14]: 25 µg/mL | MIC against P. aeruginosa [7, 14]: 12.5 µg/mL | MIC against K. pneumonia [8, 14]: 25 µg/mL | MIC [9]: 25 µg/mL | MIC against P. vulgaris [10, 14]: 25 µg/mL | MIC against S. marcescens [11, 14]: 12.5 µg/mL
